Measured values: patent US20220168430A1, “THERAPEUTIC METHODS FOR TREATING HEPATITIS B” (priority 2019, published 2022)
“And” between values parts separate entries of the source, which are not always exact repeats. Equal entries are not always repeated. Where two headings read alike, the source gives them in different places.

Columns and labels:
HBV DNA [1] = assay: HBV DNA in culture supernatants of HBV-infected PHH by qPCR (Examples 15-17); format: cell-based, HBV genotype D; primary human hepatocytes
Method: The day PHH seeding date was defined as day 0.
The PHH were infected with 400 HBV GE/cell of D type HBV on day 1.
The test articles were further diluted with the culture medium to the final test concentrations.
All the test articles were further diluted 100 times with the culture medium. The final concentration of DMSO in the culture medium was […].
Four two-way combinations were performed on a 5×5 matrix, in triplicate plates. Transfection reagent was present in all wells.
DNA in the culture supernatants harvested on days 8 was isolated with QIAamp 96 DNA Blood Kit (Qiagen-51162). For each sample, 100 μl of each culture supernatant was used to extract DNA. The DNA was eluted with 180 μl of AE. HBV DNA in the culture supernatants was quantified by quatitative PCR using well-established and commonly used procedures. Percent inhibition of HBV DNA was calculated with the formula below:
% Inh. HBV DNA=[1−value of sample/AVG. value of Medium control]×100.
Results of double combination studies were analyzed using MacSynergy II software (Prichard and Shipman, 1992).

HBV DNA [2] = assay: as above; format: cell-based, HBV genotype D; primary human hepatocytes; conditions: Hepatitis B virus, determined in an earlier separate experiment
HBV rcDNA = assay: Dual agent combination in HepDE19 cells, rcDNA by Quantigene 2.0 bDNA assay (Examples 5-8); format: cell-based, HBV; HepDE19 (HepG2 human hepatocarcinoma derived); conditions: for EC50: HepDE19, combination studies with Cmpd 1, read-out: Avg. Inhibitor B EC50; for inhibition at 0.01 µM / inhibition at 0.02 µM / inhibition at 0.039 µM / inhibition at 0.156 µM / inhibition at 1.25 µM: HepDE19, Expt 2; for inhibition at 0.01 µM: TDF 0.010 μM alone; for inhibition at 0.02 µM: TDF 0.020 μM alone; for inhibition at 0.039 µM: TDF 0.039 μM alone; for inhibition at 0.156 µM: TDF 0.156 μM alone; for inhibition at 1.25 µM: TDF 1.250 μM alone
Method: In vitro dual agent combination studies were conducted using the method of Prichard and Shipman 1990 (Prichard M N, Shipman C, Jr. 1990. Antiviral Res 14:181-205). The HepDE19 cell culture system is a HepG2 (human hepatocarcinoma) derived cell line that supports HBV DNA replication and cccDNA formation under control the control of a CMV Tet-off promoter system (Guo et al. 2007. J Virol 81:12472-84). HepDE19 (50,000 cells/well) were plated in 96 well collagen-coated tissue-culture treated microtiter plates in DMEM/F12 medium supplemented with 10% fetal bovine serum+1% penicillin-streptomycin with tetracycline (1 μg/mL) and incubated in a humidified incubator at 37° C. and 5% CO2 overnight. Next day, the cells were switched to fresh medium without tetracycline and incubated for 4 hrs at 37° C. and 5% CO2. The cells were switched to fresh medium and treated with inhibitor A and inhibitor B, at concentration range spanning their respective EC50 values. […] The two inhibitors were tested both singly as well as in combinations in a checkerboard fashion such that each concentration of inhibitor A was combined with each concentration of inhibitor B to determine their combination effects on inhibition of rcDNA production. There were four replicates of each concentration combination in each experiment. The plates were incubated for 7 days in a humidified incubator at 37° C. and 5% CO2. The level of rcDNA present in the wells was measured using a Quantigene 2.0 bDNA assay kit (Affymetrix, Santa Clara, Calif.) with HBV specific custom probe set (genotype D ayw) and according to the manufacturer's instructions and read using a luminescence plate reader and the relative luminescence units (RLU) data generated from each well was calculated as % inhibition of the untreated control wells and analyzed using the MacSynergy II program to determine whether the combinations were synergistic, additive or antagonistic using the interpretive guidelines established by Prichard and Shipman (Prichard M N, Shipman C, Jr. 1990. […] Each experiment was repeated at least three times and the averages and standard deviations of individual determinations was calculated to derive the conclusion. Concurrently, in each experiment, the effect of inhibitor combinations on cell viability was assessed using replicate plates in triplicates that were used to determine the ATP content as a measure of cell viability using the Cell-Titer Glo reagent (Promega, Madison, Wis.) as per the manufacturer's instructions.

HBsAg = HBsAg in culture supernatants of HBV-infected PHH by ELISA (Examples 15-17); conditions: for AVERAGE % INHIBITION: HBsAg; for EC50: Hepatitis B virus
Method: All the test articles were further diluted 100 times with the culture medium. The final concentration of DMSO in the culture medium was 2%.
HBsAg in the culture supernatants harvested on days 8 was measured using the HBsAg/ELISA kit (Autobio) according to the manual. The samples were diluted 4-fold with PBS to get the signal in the range of the standard curve. Percent inhibition of HBsAg was calculated with the following formula:
% Inh. HBsAg=[1−HBsAg quantity of sample/HBV quantity of DMSO control]×100

[3] = Hepatitis B virus, read-out: ADDITIVE INHIBITION
[4] = Hepatitis B virus, read-out: AVERAGE % INHIBITION

## C=C1[C@H](CO)[C@@H](O)C[C@@H]1n1cnc2c(=O)[nH]c(N)nc21 [ETV, entecavir]
HBV DNA [1]; Compound 1 0.00 μg/mL, ETV nM by row: r41 0.07000, r42 0.02300, r43 0.00780, r44 0.00260, r45 0.00086, r46 0.00000
  SYNERGY PLOT (99.9%) Bonferroni Adj. 98% (HBV DNA): 0
HBV DNA [1]; Hepatitis B virus, HBV DNA, ETV 0.00086 nM alone
  inhibition at 860 fM: -5.71%
HBV DNA [1]; Hepatitis B virus, HBV DNA, ETV 0.00260 nM alone
  inhibition at 2.6 pM: 8.16%
HBV DNA [1]; Hepatitis B virus, HBV DNA, ETV 0.02300 nM alone
  inhibition at 23 pM: 62.3%
HBV DNA [1]; Hepatitis B virus, HBV DNA, ETV 0.07000 nM alone
  inhibition at 70 pM: 85.7%
HBV DNA [1]; Hepatitis B virus, HBV DNA, ETV […] alone
  inhibition at 7.8 pM: 24.2%
HBV DNA [2]
  EC50: 0.015 nM
HBV rcDNA
  SYNERGY PLOT (99%) Bonferroni Adj. 55%: 0
HBV rcDNA; Expt 3, ETV 0.0003 μM alone
  ADDITIVE INHIBITION: 28.28
HBV rcDNA; Expt 3, ETV 0.001 μM alone
  ADDITIVE INHIBITION: 38.31
HBV rcDNA; Expt 3, ETV 0.003 μM alone
  ADDITIVE INHIBITION: 62.92
HBV rcDNA; Expt 3, ETV 0.008 μM alone
  ADDITIVE INHIBITION: 88.06
HBV rcDNA; Hepatitis B virus, HepDE19, Expt 3, ETV 0.0003 μM alone
  inhibition at 0.0003 µM: 28.3%
HBV rcDNA; Hepatitis B virus, HepDE19, Expt 3, ETV 0.001 μM alone, read-out: AVERAGE % INHIBITION
  inhibition at 0.001 µM: 38.3%
HBV rcDNA; Hepatitis B virus, HepDE19, Expt 3, ETV 0.003 μM alone, read-out: AVERAGE % INHIBITION
  inhibition at 0.003 µM: 62.9%
HBV rcDNA; Hepatitis B virus, HepDE19, Expt 3, ETV 0.008 μM alone
  inhibition at 0.008 µM: 88.1%
HBV rcDNA; Hepatitis B virus
  EC50: 1 nM
HBsAg; ETV 0.00260 nM alone
  AVERAGE % INHIBITION: 4.92% and −1.45%
HBsAg; ETV 0.02300 nM alone
  AVERAGE % INHIBITION: 0.19% and −6.78%
HBsAg
  EC50: > 0.07 nM

## CC(C)OC(=O)OCOP(=O)(CO[C@H](C)Cn1cnc2c(N)ncnc21)OCOC(=O)OC(C)C.O=C(O)/C=C/C(=O)O [TDF, tenofovir disoproxil fumarate, reference compound]
HBV DNA [1]; HBV DNA, TDF 0.12 nM alone
  AVERAGE % INHIBITION: 22.22%
HBV DNA [1]; HBV DNA, TDF 10.0 nM alone
  AVERAGE % INHIBITION: 92.76%
HBV DNA [1]; Hepatitis B virus, HBV DNA, TDF 0.12 nM alone
  inhibition at 0.00012 µM: 36.1%
HBV DNA [1]; Hepatitis B virus, HBV DNA, TDF 0.37 nM alone
  inhibition at 0.00037 µM: 44.6%
HBV DNA [1]; Hepatitis B virus, HBV DNA, TDF 10.0 nM alone
  inhibition at 0.01 µM: 92.5%
HBV DNA [2]
  EC50: 0.42 nM
HBV rcDNA
  SYNERGY PLOT (99%) Bonferroni Adj. 55%: 0
HBV rcDNA; Expt 1, TDF 0.009 μM alone
  ADDITIVE INHIBITION: −0.25
HBV rcDNA; Expt 1, TDF 0.083 μM alone
  ADDITIVE INHIBITION: 45.88
HBV rcDNA; Expt 1, TDF 0.750 μM alone
  ADDITIVE INHIBITION: 98
HBV rcDNA; Expt 3, TDF 0.009 μM alone
  ADDITIVE INHIBITION: 32.54
HBV rcDNA; Expt 3, TDF 0.083 μM alone
  ADDITIVE INHIBITION: 76.04
HBV rcDNA; Expt 3, TDF 0.750 μM alone
  ADDITIVE INHIBITION: 96.97
HBV rcDNA; Hepatitis B virus, HepDE19, Expt 1, TDF 0.009 μM alone
  inhibition at 0.009 µM: -0.25%
HBV rcDNA; Hepatitis B virus, HepDE19, Expt 1, TDF 0.083 μM alone
  inhibition at 0.083 µM: 45.9%
HBV rcDNA; Hepatitis B virus, HepDE19, Expt 1, TDF 0.750 μM alone
  inhibition at 0.75 µM: 98%
HBV rcDNA; [3]
  inhibition at 0.01 µM: 4.67%
  inhibition at 0.02 µM: -12.9%
  inhibition at 0.039 µM: 35.9%
  inhibition at 0.156 µM: 77.1%
  inhibition at 1.25 µM: 98.4%
HBV rcDNA; [4]
  inhibition at 0.01 µM: 4.67%
  inhibition at 0.02 µM: -12.9%
  inhibition at 0.039 µM: 35.9%
  inhibition at 0.156 µM: 77.1%
  inhibition at 1.25 µM: 98.4%
HBV rcDNA; Hepatitis B virus, HepDE19, Expt 3, TDF 0.009 μM alone
  inhibition at 0.009 µM: 32.5%
HBV rcDNA; Hepatitis B virus, HepDE19, Expt 3, TDF 0.083 μM alone
  inhibition at 0.083 µM: 76%
HBV rcDNA; Hepatitis B virus, HepDE19, Expt 3, TDF 0.750 μM alone
  inhibition at 0.75 µM: 97%
HBV rcDNA; Hepatitis B virus
  EC50: 64 nM
HBsAg; TDF 0.12 nM alone
  AVERAGE % INHIBITION: −1.47% and −10.84%
HBsAg; TDF 0.37 nM alone
  AVERAGE % INHIBITION: −1.3% and −9.3%
HBsAg
  EC50: > 10 nM
